Reference: ChEMBL document CHEMBL1201862, “PubChem BioAssay data set” (2004)
Activity calls are given as the source filed them.

Experiments:
[1] = molecular target: T1, Alkaline phosphatase, tissue-nonspecific isozyme (Homo sapiens, UniProt P05186)
T1 sequence (P05186 whole entry): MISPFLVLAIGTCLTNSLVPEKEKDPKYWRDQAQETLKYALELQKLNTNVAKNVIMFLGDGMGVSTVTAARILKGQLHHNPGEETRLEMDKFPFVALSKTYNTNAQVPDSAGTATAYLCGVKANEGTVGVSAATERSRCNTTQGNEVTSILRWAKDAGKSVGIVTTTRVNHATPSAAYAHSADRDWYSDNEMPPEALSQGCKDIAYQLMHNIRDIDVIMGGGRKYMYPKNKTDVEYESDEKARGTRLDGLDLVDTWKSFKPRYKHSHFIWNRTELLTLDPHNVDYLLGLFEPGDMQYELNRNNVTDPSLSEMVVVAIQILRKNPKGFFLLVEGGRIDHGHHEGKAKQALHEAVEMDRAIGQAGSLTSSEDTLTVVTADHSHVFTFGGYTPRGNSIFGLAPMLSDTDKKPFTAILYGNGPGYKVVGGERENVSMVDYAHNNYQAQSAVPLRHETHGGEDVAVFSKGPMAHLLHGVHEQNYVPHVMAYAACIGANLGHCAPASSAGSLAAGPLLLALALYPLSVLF

[2] = molecular target: T2, DNA repair protein RAD52 homolog (Homo sapiens, UniProt P43351); assay type: functional, biochemical
T2 sequence (P43351 whole entry): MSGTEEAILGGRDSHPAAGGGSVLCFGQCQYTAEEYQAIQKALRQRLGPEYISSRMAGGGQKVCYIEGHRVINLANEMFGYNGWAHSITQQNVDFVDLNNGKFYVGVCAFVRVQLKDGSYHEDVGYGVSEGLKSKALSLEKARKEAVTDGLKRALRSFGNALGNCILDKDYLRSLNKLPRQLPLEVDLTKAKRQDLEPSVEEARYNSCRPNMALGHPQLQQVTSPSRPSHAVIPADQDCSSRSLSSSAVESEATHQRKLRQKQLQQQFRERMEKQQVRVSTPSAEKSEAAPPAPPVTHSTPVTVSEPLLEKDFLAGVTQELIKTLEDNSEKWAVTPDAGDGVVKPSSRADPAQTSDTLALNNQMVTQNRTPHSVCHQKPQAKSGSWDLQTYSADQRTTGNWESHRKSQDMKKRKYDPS

[3] = molecular target: T3, Neuropeptide Y receptor type 2 (Homo sapiens, UniProt P49146); assay: Fluorescence-based counterscreen for agonists of NPY-Y1: cell-based high-throughput dose response assay for agonists of NPY-Y2.; assay type: functional
[4] = system: HEK293; assay: Fluorescence-based counterscreen for potentiators or agonists of NPY-Y1: cell-based high-throughput dose response assay for inhibitors of cyclic nucleotide gated ion channel (CNGC) activity. In this assay, the parental HEK293 cell line transfected with a cyclic-nucleotide gated ion channel (CNGC)-based cAMP sensor is used to measure inhibition of isoproterenol-induced CNGC …; assay type: functional; conditions: Homo sapiens
[5] = molecular target: T4, Neuropeptide Y receptor type 1 (Homo sapiens, UniProt P25929); assay: Fluorescence-based dose response cell-based high-throughput screening assay for agonists of NPY-Y1. [Related pubchem assays: 1697 (Screening assay (NPY-Y1 agonists).), 1359 (Screening assay (NPY-Y2 potentiators or agonists).), 1304 (Screening assay (NPY-Y1 potentiators or agonists).), 1704 (Screening assay (CNGC inhibitors).), 1791 (Summary AID.)]; assay type: functional
[6] = system: HEK293; assay: Fluorescence-based counterscreen for potentiators or agonists of NPY-Y2: cell-based high-throughput dose response assay to identify inhibitors of cyclic nucleotide gated ion channel (CNGC) activity. In this assay, the parental HEK293 cell line transfected with a cyclic-nucleotide gated ion channel (CNGC)-based cAMP sensor is used to measure inhibition of isoproterenol-induced CNGC activity by test compound.; assay type: functional; conditions: Homo sapiens
[7] = molecular target: T3, Neuropeptide Y receptor type 2; assay: Fluorescence-based cell-based high-throughput dose response assay for agonists of NPY-Y2. [Related pubchem assays: 1703 (Screening assay (CNGC inhibitors).), 1359 (Screening assay (NPY-Y2 potentiators or agonists).), 1304 (Screening assay (NPY-Y1 potentiators or agonists).), 1710 (Screening assay (NPY-Y2 agonists).), 1791 (Summary AID.)]; assay type: functional
[8] = molecular target: T4, Neuropeptide Y receptor type 1; assay: Fluorescence-based counterscreen for agonists of NPY-Y2: cell-based high-throughput dose response assay for agonists of NPY-Y1.; assay type: functional
[9] = molecular target: T5, Heat shock factor protein 1 (Mus musculus, UniProt P38532); assay: HSF1 potentiators in luciferase reporter cells, confirmation, cell-based, NIH3T3, luminescence, dose retest (AID 435004); assay type: functional;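 note: stress induced by proteasome inhibitor MG132 added 30 min after compound; luciferase reporter driven by HSF1 response element in NIH3T3 cells; actives raise luminescence as potentiators of the MG132 stress response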
T5 sequence (P38532 whole entry): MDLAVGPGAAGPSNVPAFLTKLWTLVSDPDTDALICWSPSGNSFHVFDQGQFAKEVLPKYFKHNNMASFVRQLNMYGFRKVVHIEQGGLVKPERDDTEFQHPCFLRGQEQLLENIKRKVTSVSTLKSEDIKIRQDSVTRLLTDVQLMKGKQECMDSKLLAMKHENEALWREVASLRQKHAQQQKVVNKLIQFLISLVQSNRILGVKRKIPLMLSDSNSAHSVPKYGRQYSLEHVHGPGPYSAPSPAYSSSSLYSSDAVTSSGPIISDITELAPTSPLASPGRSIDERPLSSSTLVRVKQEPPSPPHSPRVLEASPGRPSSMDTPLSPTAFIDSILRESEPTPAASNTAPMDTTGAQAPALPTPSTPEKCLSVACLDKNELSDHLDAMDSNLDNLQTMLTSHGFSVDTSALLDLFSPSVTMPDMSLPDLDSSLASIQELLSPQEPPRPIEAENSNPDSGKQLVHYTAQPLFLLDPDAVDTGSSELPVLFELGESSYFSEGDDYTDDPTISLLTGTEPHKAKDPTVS

[10] = A Cell Based Secondary Assay To Explore Cytotoxicity of Compounds that Sensitize Mycobacterium Tuberculosis to Beta-Lactam Antibiotics.; assay type: functional
[11] = Counterscreen for IDE inhibitors: Luminescence-based cell-based high throughput dose response assay to identify compounds that are cytotoxic to HEK cells. [Related pubchem assays: 434962 (Primary screen (IDE inhibitors in singlicate)), 449730 (Counterscreen (Cytotoxicity in triplicate)), 435028 (Confirmation (IDE inhibitors in triplicate)) …; assay type: functional; conditions: HEK293
[12] = molecular target: T6, Insulin-degrading enzyme (Homo sapiens, UniProt P14735); assay: Dose Response: Fluorescence polarization-based cell-based high throughput dose response assay for inhibitors of insulin-degrading enzyme (IDE). [Related pubchem assays: 434962 (Primary screen (IDE inhibitors in singlicate)), 449730 (Counterscreen (Cytotoxicity in triplicate)), 435028 (Confirmation (IDE inhibitors in triplicate)), 434984 (Summary …; assay type: functional
T6 sequence (P14735 whole entry): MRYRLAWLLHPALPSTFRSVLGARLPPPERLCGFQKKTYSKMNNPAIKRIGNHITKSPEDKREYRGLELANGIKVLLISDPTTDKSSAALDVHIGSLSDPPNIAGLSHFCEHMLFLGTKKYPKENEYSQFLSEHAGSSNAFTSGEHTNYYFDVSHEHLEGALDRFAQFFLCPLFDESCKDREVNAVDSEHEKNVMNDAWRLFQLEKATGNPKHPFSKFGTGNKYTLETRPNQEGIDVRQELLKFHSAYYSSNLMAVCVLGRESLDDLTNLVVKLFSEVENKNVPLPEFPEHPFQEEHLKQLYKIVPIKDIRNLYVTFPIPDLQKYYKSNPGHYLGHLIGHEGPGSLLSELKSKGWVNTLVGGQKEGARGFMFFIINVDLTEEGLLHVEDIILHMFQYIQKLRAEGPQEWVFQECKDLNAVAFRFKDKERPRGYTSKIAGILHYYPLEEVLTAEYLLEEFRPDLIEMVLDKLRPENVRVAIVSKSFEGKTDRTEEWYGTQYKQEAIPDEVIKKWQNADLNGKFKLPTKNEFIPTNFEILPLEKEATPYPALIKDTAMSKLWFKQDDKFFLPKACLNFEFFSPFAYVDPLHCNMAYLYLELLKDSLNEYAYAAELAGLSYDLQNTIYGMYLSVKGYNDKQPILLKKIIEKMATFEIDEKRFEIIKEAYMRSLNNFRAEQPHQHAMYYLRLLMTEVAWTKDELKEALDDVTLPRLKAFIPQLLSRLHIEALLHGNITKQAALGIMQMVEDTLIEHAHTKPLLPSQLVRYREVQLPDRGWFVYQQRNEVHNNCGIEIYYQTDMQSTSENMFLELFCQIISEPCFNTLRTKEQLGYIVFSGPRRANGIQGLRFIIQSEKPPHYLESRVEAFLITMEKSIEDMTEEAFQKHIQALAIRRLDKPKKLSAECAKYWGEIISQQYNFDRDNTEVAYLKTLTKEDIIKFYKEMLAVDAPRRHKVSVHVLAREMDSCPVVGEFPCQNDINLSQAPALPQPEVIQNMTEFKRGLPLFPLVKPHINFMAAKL

[13] = molecular target: Lysosomal acid glucosylceramidase (Homo sapiens, UniProt P04062); assay: Dose response cell-based high throughput screening assay to identify enhancers of beta-glucosidase activity. [Related pubchem assays: 784 ]; assay type: functional
[14] = cells; assay type: functional

T4 sequence (P25929 whole entry): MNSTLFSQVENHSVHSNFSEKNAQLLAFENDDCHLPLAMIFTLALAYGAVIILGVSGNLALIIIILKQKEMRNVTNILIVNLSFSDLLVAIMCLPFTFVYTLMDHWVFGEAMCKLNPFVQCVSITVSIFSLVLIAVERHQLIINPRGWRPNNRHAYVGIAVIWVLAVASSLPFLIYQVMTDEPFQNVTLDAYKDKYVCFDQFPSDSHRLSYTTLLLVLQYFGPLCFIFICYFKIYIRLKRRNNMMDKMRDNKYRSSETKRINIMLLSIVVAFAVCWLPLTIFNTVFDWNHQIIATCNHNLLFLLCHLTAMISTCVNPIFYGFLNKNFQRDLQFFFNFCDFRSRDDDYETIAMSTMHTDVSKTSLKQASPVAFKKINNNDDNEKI
T3 sequence (P49146 whole entry): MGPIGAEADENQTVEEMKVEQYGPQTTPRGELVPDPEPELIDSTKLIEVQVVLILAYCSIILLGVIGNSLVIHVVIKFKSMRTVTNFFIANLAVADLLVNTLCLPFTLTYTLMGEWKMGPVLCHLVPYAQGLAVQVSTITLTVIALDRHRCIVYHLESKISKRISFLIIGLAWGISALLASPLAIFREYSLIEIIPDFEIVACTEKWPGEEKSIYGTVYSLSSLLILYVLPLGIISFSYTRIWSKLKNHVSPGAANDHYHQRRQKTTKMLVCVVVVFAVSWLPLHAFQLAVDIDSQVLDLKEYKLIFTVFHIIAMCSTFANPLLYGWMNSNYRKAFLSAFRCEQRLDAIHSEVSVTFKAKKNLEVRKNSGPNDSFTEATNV
Lysosomal acid glucosylceramidase, sequence (P04062 whole entry): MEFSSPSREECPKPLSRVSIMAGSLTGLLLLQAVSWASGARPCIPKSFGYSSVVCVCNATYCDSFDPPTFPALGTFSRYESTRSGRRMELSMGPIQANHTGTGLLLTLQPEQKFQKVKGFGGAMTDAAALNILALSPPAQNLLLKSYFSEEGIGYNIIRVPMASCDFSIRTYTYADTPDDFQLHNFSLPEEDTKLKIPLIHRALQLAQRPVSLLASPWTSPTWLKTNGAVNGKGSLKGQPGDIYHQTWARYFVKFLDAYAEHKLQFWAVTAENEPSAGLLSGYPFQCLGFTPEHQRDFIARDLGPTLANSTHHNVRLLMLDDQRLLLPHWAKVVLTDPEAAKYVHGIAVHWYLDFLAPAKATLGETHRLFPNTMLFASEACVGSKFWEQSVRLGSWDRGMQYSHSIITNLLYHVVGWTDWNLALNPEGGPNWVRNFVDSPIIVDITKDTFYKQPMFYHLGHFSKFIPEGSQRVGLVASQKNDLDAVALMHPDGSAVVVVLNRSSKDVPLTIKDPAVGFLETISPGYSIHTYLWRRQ

CN(C)CCCN(C(=O)c1ccco1)c1nc2ccc(Br)cc2s1
EC50 [1]: > 100 µM (not active)
AC50 [2]: 14.1 µM (active)

COc1ccc(Nc2oc(/C=C3/SC(=S)N(CC4CCCO4)C3=O)nc2C#N)cc1 (centres undefined)
EC50 [3]: 12.8 µM (not active)
IC50 [4]: 11.8 µM (not active)
EC50 [5]: 13.5 µM (not active)

COCCCNC(=O)c1cnc2ccc(S(=O)(=O)N3CCc4ccccc43)cc2c1O
EC50 [6]: > 35.4 µM (not active)
EC50 [7]: > 35.4 µM (not active)
EC50 [8]: > 35.4 µM (not active)
EC50 [9]: > 260 µM (inactive)

O=S(=O)(Nc1cccc(-c2ccc(N3CCCCCC3)nn2)c1)c1ccccc1Cl
CC50 [10]: > 40 µM (active)

CCCCCN(C(=O)CCC(=O)OCC(=O)c1ccc(CCC)cc1)c1c(N)n(CCCC)c(=O)[nH]c1=O
IC50 [11]: 39.1 µM (not active)
IC50 [12]: 10.6 µM (not active)

CCCCSc1nnc(-c2ccc(C)cc2)o1
EC50 [13]: > 50 µM (not active)
IC50 [14]: 39 µM (active)
